Assays:
[1] = test system: BRD2, BRD3 and BRD4 proteins in RS4;11 cells; conditions: for lowest concentration very effective in inducing degradation of BET proteins: 3 h treatment
[2] = test system: MV4;11, MOLM-13 and RS4;11 acute leukemia cell lines; assay: Cell growth inhibition, statements covering the three leukemia cell lines; type: cell-based, human
[3] = test system: cleaved PARP and cleaved Caspase 3 in RS4;11 cells; assay: Western blotting of cleaved PARP / caspase 3 in RS4; type: cell-based, human; conditions: RS4;11 cells; for apoptosis induction revealed by cleavage of PARP: 1 and 10 nM, 24 h treatment
[4] = test system: c-Myc protein in RS4;11 cells; assay: Western blotting of c-Myc in RS4; type: cell-based, human; conditions: RS4;11 cells, 3 h treatment
BRD4 BD1 protein [5] = target: T1, BRD4 BD1 protein (Homo sapiens, UniProt O60885); assay: biochemical
BRD4 BD1 protein [6] = target: T1, BRD4 BD1 protein; conditions: for times less potent than 3 in binding to BRD4 BD1: vs compound 3
RS4;11 cells = assay: Apoptosis by flow cytometry; type: cell-based, human; conditions: RS4;11, 1–10 μM
MV4;11 cells = assay: Apoptosis by flow cytometry; type: cell-based, human; conditions: MV4;11, 1–10 μM
MOLM-13 cells = assay: Apoptosis by flow cytometry; type: cell-based, human; conditions: MOLM-13, 1–10 μM

4-(4-((3-Benzyl-9-methyl-4H,6H-thieno[2,3-e][1,2,4]triazolo[3,4-c][1,4]oxazepin-2-yl)ethynyl)-1H-pyrazol-1-yl)-2-(2,6-dioxopiperidin-3-yl)isoindoline-1,3-dione [Compound 26]
degradation of BRD2, BRD3 and BRD4 proteins ([1]; up to 1,000 nM, 24 h treatment): failed to induce degradation | cell growth inhibitory activity ([2]; concentrations up to 1,000 nM, any of the three leukemia cell lines): failed to show significant cell growth inhibitory activity

4-(5-(4-((3-Benzyl-9-methyl-4H,6H-thieno[2,3-e][1,2,4]triazolo[3,4-c][1,4]oxazepin-2-yl)ethynyl)-1H-pyrazol-1-yl)pent-1-yn-1-yl)-2-(2,6-dioxopiperidin-3-yl)isoindoline-1,3-dione [Compound 36]
times less potent than 35 in cell growth inhibition ([2]; three leukemia cell lines): 10–100 times

4-((2-(4-((3-Benzyl-9-methyl-4H,6H-thieno[2,3-e][1,2,4]triazolo[3,4-c][1,4]oxazepin-2-yl)ethynyl)-1H-pyrazol-1-yl)ethyl)amino)-2-(2,6-dioxopiperidin-3-yl)isoindoline-1,3-dione [Compound 28]
apoptosis induction revealed by cleavage of PARP [3]: potently induce apoptosis

4-((3-(4-((3-Benzyl-9-methyl-4H,6H-thieno[2,3-e][1,2,4]triazolo[3,4-c][1,4]oxazepin-2yl)ethynyl)-1H-pyrazol-1-yl)propyl)amino)-2-(2,6-dioxopiperidin-3-yl)isoindoline-1,3-dione [Compound 29]
lowest concentration very effective in inducing degradation of BET proteins [1]: ≤ 0.1 nM | apoptosis induction revealed by cleavage of PARP [3]: potently induce apoptosis | times more potent than 28 in cell growth inhibition ([2]; three cell lines): 3–10 times

4-((4-(4-((3-Benzyl-9-methyl-4H,6H-thieno[2,3-e][1,2,4]triazolo[3,4-c][1,4]oxazepin-2yl)ethynyl)-1H-pyrazol-1-yl)butyl)amino)-2-(2,6-dioxopiperidin-3-yl)isoindoline-1,3-dione [Compound 30]
lowest concentration very effective in inducing degradation of BET proteins [1]: ≤ 0.1 nM | apoptosis induction revealed by cleavage of PARP [3]: potently induce apoptosis | lowest concentration reducing the levels of c-Myc protein [4]: ≤ 0.1 nM | times more potent than 29 in cell growth inhibition ([2]; each of the three leukemia cell lines): 2–3 times

4-((4-((3-Benzyl-9-methyl-4H,6H-thieno[2,3-e][1,2,4]triazolo[3,4-c][1,4]oxazepin-2-yl)ethynyl)-1H-pyrazol-1-yl)methoxy)-2-(2,6-dioxopiperidin-3-yl)isoindoline-1,3-dione [Compound 27]
degradation of BRD2 and BRD3 relative to BRD4 [1]: more effectively than the BRD4 protein | relative potency in inducing degradation of BET proteins [1]: much less potent than compounds 29, 30 and 31 | lowest concentration very effective in inducing degradation of BRD2, BRD3 and BRD4 ([1]; time- and dose-dependent): ≤ 10 nM

4-((5-(4-((3-Benzyl-9-methyl-4H,6H-thieno[2,3-e][1,2,4]triazolo[3,4-c][1,4]oxazepin-2-yl)ethynyl)-1H-pyrazol-1-yl)pentyl)amino)-2-(2,6-dioxopiperidin-3-yl)isoindoline-1,3-dione [Compound 31]
lowest concentration very effective in inducing degradation of BET proteins [1]: ≤ 0.1 nM | apoptosis induction revealed by cleavage of PARP [3]: potently induce apoptosis | lowest concentration reducing the levels of c-Myc protein [4]: ≤ 0.1 nM

Cc1cc2c(s1)-n1c(C)nnc1COC2 [Compound 2, 2,9-dimethyl-4H,6H-thieno[2,3-e][1,2,4]triazolo[3,4-c][1,4]oxazepine]
IC50 (BRD4 BD1 protein [5]): 4.4 ± 0.7 µM | Ki (BRD4 BD1 protein [5]): 1.5 ± 0.2 µM

Cc1nnc2n1-c1scc(Cc3ccccc3)c1COC2 [Compound 4, 3-Benzyl-9-methyl-4H,6H-thieno[2,3-e][1,2,4]triazolo[3,4-c][1,4]oxazepine]
times less potent than 3 in binding to BRD4 BD1 (BRD4 BD1 protein [6]): 25 times

Cc1nnc2n1-c1sc(C3CCOCC3)c(Cc3ccccc3)c1COC2 [Compound 6, 3-Benzyl-9-methyl-2-(tetrahydro-2H-pyran-4-yl)-4H,6H-thieno[2,3-e][1,2,4]triazolo[3,4c][1,4]oxazepine]
times less potent than 3 in binding to BRD4 BD1 (BRD4 BD1 protein [6]): > 50 times

Cc1nnc2n1-c1sc(C#N)c(Cc3ccccc3)c1COC2 [Compound 9, 3-Benzyl-9-methyl-4H,6H-thieno[2,3-e][1,2,4]triazolo[3,4-c][1,4]oxazepine-2-carbonitrile]
times less potent than 3 in binding to BRD4 BD1 (BRD4 BD1 protein [6]): 6 times | times less potent than 8 in binding to BRD4 BD1 (BRD4 BD1 protein [6]; vs compound 8): 3 times

Cc1nnc2n1-c1sc(C#Cc3cnn(C)c3)c(Cc3ccccc3)c1COC2 [Compound 22, 3-Benzyl-9-methyl-2-((1-methyl-1H-pyrazol-4-yl)ethynyl)-4H,6H-thieno[2,3-e][1,2,4]triazolo[3,4-c][1,4]oxazepine]
apoptosis induction (RS4;11 cells): minimal to modest effect | apoptosis induction (MV4;11 cells): minimal to modest effect | PARP cleavage ([3]; 10 μM, 24 h): only marginally | apoptosis induction (MOLM-13 cells): minimal to modest effect

Source: article PMC6545111 (Journal of medicinal chemistry, 2018)
